Structures can show the parent of a compound that is named as a salt.
How the values were obtained:
IRE1a [1] = target: T1, IRE1a (Homo sapiens, UniProt O75460); experiment: IRE1a Endoribonuclease Nanoluciferase Assay in 293T cells; assay type: cell-based; design: endogenous in cells; host or cells: 293T cells; conditions: XBP1 luciferase reporter in 293T cells, ER stressor
Method: Compounds disclosed herein were assessed for disruption of IRE1 signaling using a IRE1a Endoribonuclease Nanoluciferase Assay. Briefly, 2.5×10^6 293T cells were seeded in a 10 cm^2 tissue culture plate. About 24 hours later, the cells were transfected with Effectene. In a 15 mL tube, the following was added: 2 ug XBP1 luciferase reporter plasmid (PGK-Luc2-P2A-XBP1u-Nanoluciferase-PEST); 300 ul EC buffer; and 16 ul Enhancer, followed by incubation at room temp for 5 minutes. Next, 60 ul Effectene (Qiagen 301427) was added, followed by incubation at room temperature for 10 minutes, 2.6 mL cDMEM media was added. Old media was aspirated from the cells, followed by addition of 7 mL fresh media. Full transfection mixture was added dropwise to cells. Cells were incubated for 6 hours, followed by trypsinization, centrifugation and resuspension in 11 mL fresh cDMEM media, 100 uL of cells were plated per a well in a 96 well plate. A day later, ER stressors of choice +/−inhibitors were added. To harvest, media was aspirated from cells completely, then 50 uL 1× passive lysis buffer (Promega: E1941) was added per well and put on shaker (300 rpm) for 30 minutes at room temperature. Cells were centrifuged, and 15 uL sample per well was added to a new, opaque white 384 well plate (Corning 3570), 15 uL OneGlo (nanoluciferase kit, Promega N1630) was added. Plates were spun down, placed on shaker (300 rpm) for 10 minutes. Plates were read on luminometer, 1000 ms integration time per well, 15 uL Stop and Glo (nanoluciferase kit) was added. Plates were spun down, placed on shaker (300 rpm) for 10 minutes. Plates were read on luminometer, 1000 ms second integration time per well. Recordings are provided below in Table 4.

IRE1a [2] = target: T1, IRE1a; experiment: In vitro FRET assay (IRE1a cleavage of XBP1 RNA probe); assay type: biochemical; design: purchased SignalChem; conditions: 2 nM IRE1a
Method: In vitro FRET assay was performed to evaluate the ability of select compounds to inhibit IRE1, the results of which are summarized in Table 3. To perform the in vitro FRET assay, 1× complete assay buffer (CAB; […], 50 mM sodium citrate pH 7.15, 1 mM magnesium acetate, 0.02% tween 20) was used to dilute SignalChem IRE1a protein to a final concentration of 2 nM. Selected compounds were serially diluted with DMSO in a non-binding black 384-well plate for a total of 15 ul in each well, 2 ul of the serially diluted compound or DMSO control were then added to new wells containing 98 ul of 1×CAB, for a total volume of 100 ul, 10 ul of which were then transferred to wells of a new plate, 5 ul of the diluted IRE1a was then added to each well, 5 ul of a […] XBP1 RNA probe was then added to each well. Fluorescence was then read over 30 minutes in kinetic mode (485/515 nm).
Two RNA probes were used, XBP1 wildtype (SEQ ID NO: 2) which is able to be spliced by active IRE1a or XBP1 mutant (SEQ ID NO: 3) which is unable to be spliced. Each probe contained a 5′ 6-FAM modification and a 3′ IOWA Black FQ modification. […]

T1 sequence (O75460 19-977): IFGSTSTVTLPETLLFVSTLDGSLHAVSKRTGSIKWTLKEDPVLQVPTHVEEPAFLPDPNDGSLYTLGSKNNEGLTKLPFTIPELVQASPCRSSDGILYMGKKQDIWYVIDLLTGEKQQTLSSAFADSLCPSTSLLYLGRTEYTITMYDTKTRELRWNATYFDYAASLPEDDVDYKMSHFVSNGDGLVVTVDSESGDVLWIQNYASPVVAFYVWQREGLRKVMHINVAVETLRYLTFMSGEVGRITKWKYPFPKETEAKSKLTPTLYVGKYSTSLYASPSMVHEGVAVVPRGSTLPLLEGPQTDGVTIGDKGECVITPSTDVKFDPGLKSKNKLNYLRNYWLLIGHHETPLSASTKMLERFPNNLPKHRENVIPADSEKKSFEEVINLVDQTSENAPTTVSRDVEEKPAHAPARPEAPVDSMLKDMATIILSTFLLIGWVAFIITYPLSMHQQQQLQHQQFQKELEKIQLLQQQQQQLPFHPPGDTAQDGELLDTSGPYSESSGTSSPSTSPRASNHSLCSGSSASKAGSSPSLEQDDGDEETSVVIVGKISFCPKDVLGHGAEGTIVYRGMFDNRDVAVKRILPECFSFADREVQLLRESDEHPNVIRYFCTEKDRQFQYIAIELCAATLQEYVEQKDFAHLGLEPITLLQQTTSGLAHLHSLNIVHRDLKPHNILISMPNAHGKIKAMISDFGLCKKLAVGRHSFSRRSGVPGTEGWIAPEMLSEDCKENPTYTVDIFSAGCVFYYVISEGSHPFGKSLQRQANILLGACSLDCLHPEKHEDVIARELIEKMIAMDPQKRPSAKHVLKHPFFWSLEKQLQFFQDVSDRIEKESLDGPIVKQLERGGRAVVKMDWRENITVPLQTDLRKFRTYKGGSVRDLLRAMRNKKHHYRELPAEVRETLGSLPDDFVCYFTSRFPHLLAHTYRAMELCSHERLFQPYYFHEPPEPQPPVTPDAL

| Compound | EC50 (IRE1a [1]) | IC50 (IRE1a [2]) | Mean EC50 (IRE1a [1]) |
| --- | --- | --- | --- |
| CCc1cc(-c2cc(NS(=O)(=O)c3ccccc3Cl)n[nH]2)cc2cnc(N[C@H]3CC[C@H](N)CC3)nc12 [29; Formic Acid Salt] | 100 to 10000 nM |  |  |
| CCc1cc(-c2ccc(N(C)S(=O)(=O)c3ccccc3Cl)cc2C)cc2cnc(N[C@H]3CC[C@H](N)CC3)nc12 [31; Formic Acid Salt] |  | 100 to 10000 nM |  |
| N[C@H]1CC[C@H](Nc2ncc3cc(-c4cc(F)c(NS(=O)(=O)c5ccccc5Cl)cc4F)ccc3n2)CC1 [53; Formic Acid Salt] | ≤ 5 nM | ≤ 5 nM |  |
| CCc1cc(-c2ccc(NS(=O)(=O)c3ccccc3Cl)nn2)cc2cnc(N[C@H]3CC[C@H](NC)CC3)nc12 [61; Formic Acid Salt] | ≤ 5 nM | ≤ 5 nM |  |
| CCc1cc(-c2ccc(NS(=O)(=O)c3ccccc3Cl)nn2)cc2cnc(N[C@H]3CC[C@H](N(C)C)CC3)nc12 [64; Formic Acid Salt] | ≤ 5 nM | ≤ 5 nM |  |
| CCc1cc(-c2ccc(NS(=O)(=O)c3ccccc3Cl)c(F)c2)cc2cnc(N[C@@H]3CCC[C@H](N)C3)nc12 [72; Formic Acid Salt] | 100 to 10000 nM |  |  |
| N[C@H]1CCC[C@@H](Nc2ncc3cc(-c4ccc(NS(=O)(=O)c5ccccc5Cl)c(F)c4)ccc3n2)C1 [75; Formic Acid Salt] | 100 to 10000 nM | ≤ 5 nM |  |
| N[C@H]1CC[C@@H](Nc2ncc3cc(-c4ccc(NS(=O)(=O)c5ccccc5Cl)c(F)c4)ccc3n2)C1 [80; Formic Acid Salt] | 100 to 10000 nM |  |  |
| CCc1cc(-c2ccc(NS(=O)(=O)c3ccccc3Cl)c(F)c2)cc2cnc(N[C@H]3CC[C@H](N4CCCC4)CC3)nc12.O=CO [88; Formic Acid Salt] |  |  | , |
| N[C@H]1CC[C@H](Nc2ncc3cc(-c4nnc(NS(=O)(=O)c5ccccc5Cl)s4)ccc3n2)CC1 [89; Formic Acid Salt] | 100 to 10000 nM |  |  |
| CCc1cc(-c2cnc(NS(=O)(=O)c3ccccc3Cl)cc2OC)cc2cnc(N[C@H]3CC[C@H](N)CC3)nc12 [92; Formic Acid Salt] | 100 to 10000 nM |  |  |
| CCc1cc(-c2cnc(NS(=O)(=O)c3ccccc3Cl)c(F)c2)cc2cnc(N[C@H]3CC[C@H](N(C)C)CC3)nc12 [95; Formic Acid Salt] | ≤ 5 nM | ≤ 5 nM |  |
| CCc1cc(-c2ccc(NS(=O)(=O)c3ccccc3Cl)nc2OC)cc2cnc(N[C@H]3CC[C@H](N(C)C)CC3)nc12 [99; Formic Acid Salt] | ≤ 5 nM | ≤ 5 nM |  |
| CCc1nc(NS(=O)(=O)c2ccccc2Cl)ccc1-c1cc(CC)c2nc(N[C@H]3CC[C@H](N(C)C)CC3)ncc2c1 [117; Formic Acid Salt] | ≤ 5 nM | ≤ 5 nM |  |
| CCc1cc(-c2ccc(NS(=O)(=O)c3ccccc3C)nc2OC)cc2cnc(N[C@H]3CC[C@H](N(C)C)CC3)nc12 [119; Formic Acid Salt] | ≤ 5 nM | ≤ 5 nM |  |
| CCc1cc(-c2ccc(NS(=O)(=O)c3ccccc3Cl)nc2C)cc2cnc(N[C@H]3CC[C@H](N(C)CC(F)(F)F)CC3)nc12 [126; Formic Acid Salt] |  | 50 to 100 nM |  |
| CCc1cc(-c2cc(F)c(NS(=O)(=O)c3ccccc3Cl)nc2OC)cc2cnc(N[C@H]3CC[C@H](NC)CC3)nc12 [127; Formic Acid Salt] | ≤ 5 nM | ≤ 5 nM |  |
| CCc1cc(-c2cc(F)c(NS(=O)(=O)c3ccccc3Cl)nc2OC)cc2cnc(N[C@H]3CC[C@H](N(C)C)CC3)nc12 [128; Formic Acid Salt] | ≤ 5 nM | ≤ 5 nM |  |
| CCc1cc(-c2ccc(NS(=O)(=O)c3ccccc3Cl)nc2C)cc2cnc(N[C@H]3CC[C@H](N(C)CC4CCC4)CC3)nc12 [130; Formic Acid Salt] | ≤ 5 nM | ≤ 5 nM |  |
| Cc1nc(NS(=O)(=O)c2ccccc2Cl)ccc1-c1cc(C(C)(F)F)c2nc(N[C@H]3CC[C@H](N(C)C)CC3)ncc2c1 [131; Formic Acid Salt] | ≤ 5 nM | ≤ 5 nM |  |
| CCc1cc(-c2ccc(NS(=O)(=O)c3ccccc3Cl)nc2C)cc2cnc(N[C@H]3CC[C@H](N(C)CCOC)CC3)nc12 [132; Formic Acid Salt] | ≤ 5 nM | ≤ 5 nM |  |

| Compound | EC50 (IRE1a [1]) | IC50 (IRE1a [2]) | Mean EC50 (IRE1a [1]) |
| --- | --- | --- | --- |
| COc1nc(NS(=O)(=O)c2ccccc2Cl)ccc1-c1cc(C)c2nc(N[C@H]3CC[C@H](N(C)C)CC3)ncc2c1 [133; Formic Acid Salt] | ≤ 5 nM | ≤ 5 nM |  |
| COc1nc(NS(=O)(=O)c2ccccc2Cl)ccc1-c1cc(C(F)(F)F)c2nc(N[C@H]3CC[C@H](N(C)C)CC3)ncc2c1 [135; Formic Acid Salt] | ≤ 5 nM | ≤ 5 nM |  |
| COCc1cc(-c2ccc(NS(=O)(=O)c3ccccc3Cl)nc2OC)cc2cnc(N[C@H]3CC[C@H](N(C)C)CC3)nc12 [137; Formic Acid Salt] | ≤ 5 nM | ≤ 5 nM |  |
| COc1nc(NS(=O)(=O)c2ccccc2Cl)ccc1-c1cc(C)c2nc(N[C@H]3CC[C@@H](N(C)C)CC3)ncc2c1 [139; Formic Acid Salt] |  | 5 to 50 nM |  |
| CCc1cc(-c2ccc(NS(=O)(=O)c3ccccc3Cl)nc2OC)cc2cnc(N[C@H]3CC[C@@H](N(C)C)CC3)nc12 [141; Formic Acid Salt] | 100 to 10000 nM | ≤ 5 nM |  |
| CCc1cc(-c2cc(F)c(NS(=O)(=O)c3ccccc3Cl)nc2OC)cc2cnc(N[C@H]3CC[C@@H](N(C)C)CC3)nc12 [142; Formic Acid Salt] |  | 5 to 50 nM |  |
| CCc1cc(-c2ccc(NS(=O)(=O)c3ccccc3Cl)nc2OC)cc2cnc(N[C@H]3CC[C@@](C)(N(C)C)CC3)nc12 [143; Formic Acid Salt] |  | 5 to 50 nM |  |
| COc1nc(NS(=O)(=O)c2ccccc2Cl)c(F)cc1-c1cc(C)c2nc(N[C@H]3CC[C@H](N(C)C)CC3)ncc2c1 [145; Formic Acid Salt] | ≤ 5 nM | ≤ 5 nM |  |
| COc1nc(NS(=O)(=O)c2ccccc2Cl)c(F)cc1-c1cc(C)c2nc(N[C@H]3CC[C@@H](N(C)C)CC3)ncc2c1 [147; Formic Acid Salt] |  | 5 to 50 nM |  |
| COc1nc(NS(=O)(=O)c2ccccc2Cl)ccc1-c1cc(F)c2nc(N[C@H]3CC[C@H](N(C)C)CC3)ncc2c1 [148; Formic Acid Salt] | ≤ 5 nM | ≤ 5 nM |  |
| COc1nc(NS(=O)(=O)c2ccccc2Cl)c(F)cc1-c1ccc2nc(N[C@H]3CC[C@H](N(C)C)CC3)ncc2c1 [149; Formic Acid Salt] | 5 to 50 nM | ≤ 5 nM |  |
| CN[C@H]1CC[C@H](Nc2ncc3cc(-c4cc(F)c(NS(=O)(=O)c5ccccc5Cl)nc4OC)ccc3n2)CC1 [150; Formic Acid Salt] | 5 to 50 nM | ≤ 5 nM |  |
| CCc1cc(-c2ccc(NS(=O)(=O)c3ccccc3Cl)nc2C)cc2cnc(N[C@H]3CC[C@H](N(C)C)C[C@@H]3F)nc12 [151; Formic Acid Salt] | ≤ 5 nM | ≤ 5 nM |  |
| CCc1cc(-c2ccc(NS(=O)(=O)c3cccc(Cl)c3Cl)nc2C)cc2cnc(N[C@H]3CC[C@H](N(C)C)CC3)nc12 [152; Formic Acid Salt] | ≤ 5 nM | ≤ 5 nM |  |
| Cc1nc(NS(=O)(=O)c2ccccc2Cl)c(F)cc1-c1ccc2nc(N[C@H]3CC[C@H](N(C)C)CC3)ncc2c1 [153; Formic Acid Salt] | 5 to 50 nM | ≤ 5 nM |  |
| CCc1cc(-c2cnc(NS(=O)(=O)c3ccccc3Cl)nc2OC)cc2cnc(N[C@H]3CC[C@H](N(C)C)CC3)nc12 [154; Formic Acid Salt] | ≤ 5 nM | ≤ 5 nM |  |
| COc1nc(NS(=O)(=O)c2ccccc2Cl)c(F)cc1-c1cc(F)c2nc(N[C@H]3CC[C@H](N(C)C)CC3)ncc2c1 [155; Formic Acid Salt] | 50 to 100 nM | ≤ 5 nM |  |
| Cc1nc(NS(=O)(=O)c2ccccc2Cl)c(F)cc1-c1cc(F)c2nc(N[C@H]3CC[C@H](N(C)C)CC3)ncc2c1 [156; Formic Acid Salt] |  | 100 to 10000 nM |  |
| CCc1cc(-c2ccc(NS(=O)(=O)c3cccc(F)c3Cl)nc2C)cc2cnc(N[C@H]3CC[C@H](N(C)C)CC3)nc12 [158; Formic Acid Salt] | ≤ 5 nM | ≤ 5 nM |  |
| CCc1cc(-c2nnc(NS(=O)(=O)c3ccccc3Cl)cc2OC)cc2cnc(N[C@H]3CC[C@H](N(C)C)CC3)nc12 [159; Formic Acid Salt] | 5 to 50 nM | ≤ 5 nM |  |

Source: patent US20220265656A1, “COMBINATION THERAPIES WITH IRE1 SMALL MOLECULE INHIBITORS” (Cornell University, priority 2019, published 2022)
